Test results as given in patent publication US20190071416A1, “COMPOUNDS FOR TREATMENT OF CANCER AND EPIGENETICS” (Agency For Science, Technology and Research, priority 2015, published 2019).

target: T1, SMYD3 (Homo sapiens, UniProt Q9H7B4); assay: SMYD3 biochemical assay (MTase-Glo, MAP3K2 peptide substrate); conditions: Table 3; MTase assay, MAP3K2 peptide substrate; read-out: IC50
T1 sequence (Q9H7B4 1-428): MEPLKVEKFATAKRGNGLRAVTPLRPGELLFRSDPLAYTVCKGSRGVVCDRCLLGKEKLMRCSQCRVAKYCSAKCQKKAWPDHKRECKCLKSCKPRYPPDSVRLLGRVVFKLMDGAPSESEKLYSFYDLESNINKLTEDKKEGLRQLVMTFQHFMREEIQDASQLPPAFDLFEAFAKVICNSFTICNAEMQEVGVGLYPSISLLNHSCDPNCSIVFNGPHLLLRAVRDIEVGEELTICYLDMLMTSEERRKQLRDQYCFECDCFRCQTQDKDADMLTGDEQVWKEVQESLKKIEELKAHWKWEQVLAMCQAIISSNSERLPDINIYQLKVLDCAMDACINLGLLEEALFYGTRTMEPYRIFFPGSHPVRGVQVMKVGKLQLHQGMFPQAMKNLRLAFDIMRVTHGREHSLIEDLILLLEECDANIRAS
Summary of the method: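 Luminescent readout of SAH production (coupled SAH→ATP conversion, MTase-Glo) after SMYD3 reacted 30 min at room temperature with 1.0 µM SAM and 10 µM MAP3K2 peptide, both final. Non-linear regression gave IC50 values.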

| SMILES | IC50 [nM] |
| --- | --- |
| CCCOC(=O)N1CCN(C(=O)c2ccc3c(Cl)cc(-c4ccc(OC)c(CN)c4)nc3c2)C[C@H]1C [B107, Propyl (R)-4-(2-(3-(aminomethyl)-4-methoxyphenyl)-4-chloroquinoline-7-carbonyl)-2-methylpiperazine-1-carboxylate] | 76 |
| CCCOC(=O)N1CCN(C(=O)c2ccc3c(Cl)cc(C4(C)CC4)nc3c2)C[C@H]1C [B109, Propyl (R)-4-(4-chloro-2-(1-methylcyclopropyl)quinoline-7-carbonyl)-2-methylpiperazine-1-carboxylate] | 380 |
| CCCOC(=O)N1CCN(C(=O)c2ccc3c(Cl)cc(-c4cccc(CN(C)C)c4)nc3c2)C[C@H]1C [B111, Propyl (R)-4-(4-chloro-2-(3-((dimethylamino)methyl)phenyl)quinoline-7-carbonyl)-2-methylpiperazine-1-carboxylate] | 220 |
| CCCOC(=O)N1CCN(C(=O)c2ccc3c(Cl)c(C)c(-c4ccc(C(N)=O)cc4)nc3c2)C[C@H]1C [B113, Propyl (R)-4-(2-(4-carbamoylphenyl)-4-chloro-3-methylquinoline-7-carbonyl)-2-methylpiperazine-1-carboxylate] | 92 |
| CCCOC(=O)N1CCN(C(=O)c2ccc3c(Cl)c(C)c(-c4ccc(C#N)cc4)nc3c2)C[C@H]1C [B114, Propyl (R)-4-(4-chloro-2-(4-cyanophenyl)-3-methylquinoline-7-carbonyl)-2-methylpiperazine-1-carboxylate] | 420 |
| CCCOC(=O)N1CCN(C(=O)c2ccc3c(Cl)cc(-c4ccc(S(=O)(=O)NC)cc4)nc3c2)CC1 [B116, Propyl 4-(4-chloro-2-(4-(N-methylsulfamoyl)phenyl)quinoline-7-carbonyl)piperazine-1-carboxylate] | 430 |
| CCCOC(=O)N1CCN(C(=O)c2ccc3c(Cl)cc(-c4cccc(S(N)(=O)=O)c4)nc3c2)CC1 [B117, Propyl 4-(4-chloro-2-(3-sulfamoylphenyl)quinoline-7-carbonyl)piperazine-1-carboxylate] | 920 |
| CCCOC(=O)N1CCN(C(=O)c2ccc3c(Cl)cc(-c4ccc(CNC)cc4)nc3c2)C[C@H]1C [B119, Propyl (R)-4-(4-chloro-2-(4-((methylamino)methyl)phenyl)quinoline-7-carbonyl)-2-methylpiperazine-1-carboxylate] | 42 |
| CCCOC(=O)N1CCN(C(=O)c2ccc3c(Cl)cc(-c4ccc(NC(C)=O)cc4)nc3c2)C[C@H]1C [B121, Propyl (R)-4-(2-(4-acetamidophenyl)-4-chloroquinoline-7-carbonyl)-2-methylpiperazine-1-carboxylate] | 55 |
| CCCOC(=O)N1CCN(C(=O)c2ccc3c(Cl)c(C)c(-c4ccc(CN)cc4)nc3c2)C[C@H]1C [B122, Propyl (R)-4-(2-(4-(aminomethyl)phenyl)-4-chloro-3-methylquinoline-7-carbonyl)-2-methylpiperazine-1-carboxylate] | 70 |
| CCCOC(=O)N1CCN(C(=O)c2ccc3c(Cl)cc(-c4cccc(CNC)c4)nc3c2)C[C@H]1C [B124, Propyl (R)-4-(4-chloro-2-(3-((methylamino)methyl)phenyl)quinoline-7-carbonyl)-2-methylpiperazine-1-carboxylate] | 60 |
| CCCOC(=O)N1CCN(C(=O)c2ccc3c(Cl)cc(C4CC4)nc3c2)CC1 [B125, Propyl 4-(4-chloro-2-cyclopropylquinoline-7-carbonyl)piperazine-1-carboxylate] | 560 |
| CCCOC(=O)N1CCN(C(=O)c2ccc3c(Cl)cc(-c4ccc5[nH]ncc5c4)nc3c2)CC1 [B128, Propyl 4-(4-chloro-2-(1H-indazol-5-yl)quinoline-7-carbonyl)piperazine-1-carboxylate] | 53 |
| CCCOC(=O)N1CCN(C(=O)c2ccc3c(Cl)cc(-c4ccc5cn[nH]c5c4)nc3c2)CC1 [B129, Propyl 4-(4-chloro-2-(1H-indazol-6-yl)quinoline-7-carbonyl)piperazine-1-carboxylate] | 87 |
| CCCOC(=O)N1CCN(C(=O)c2ccc3c(Cl)cc(-c4ccnc(OC)c4)nc3c2)C[C@H]1C [B131, Propyl (R)-4-(4-chloro-2-(2-methoxypyridin-4-yl)quinoline-7-carbonyl)-2-methylpiperazine-1-carboxylate] | 360 |
| CCCOC(=O)N1CCN(C(=O)c2ccc3c(Cl)cc(-c4cnc5[nH]ccc5c4)nc3c2)C[C@H]1C [B132, Propyl (R)-4-(4-chloro-2-(1H-pyrrolo[2,3-b]pyridin-5-yl)quinoline-7-carbonyl)-2-methylpiperazine-1-carboxylate] | 170 |
| CCCOC(=O)N1CCN(C(=O)c2ccc3c(Cl)cc(C4(C)CC4)nc3c2)CC1 [B133, Propyl 4-(4-chloro-2-(1-methylcyclopropyl)quinoline-7-carbonyl)piperazine-1-carboxylate] | 1400 |
| CCCOC(=O)N1CCN(C(=O)c2ccc3c(Cl)cc(-c4ccc(-n5cccn5)cc4)nc3c2)CC1 [B134, Propyl 4-(2-(4-(1H-pyrazol-1-yl)phenyl)-4-chloroquinoline-7-carbonyl)piperazine-1-carboxylate] | 600 |
| CCCOC(=O)N1CCN(C(=O)c2ccc3c(Cl)cc(-c4ccc(-c5ccn[nH]5)cc4)nc3c2)CC1 [B135, Propyl 4-(2-(4-(1H-pyrazol-5-yl)phenyl)-4-chloroquinoline-7-carbonyl)piperazine-1-carboxylate] | 400 |
| CCCOC(=O)N1CCN(C(=O)c2ccc3c(Cl)cc(-c4ccc(-c5cn[nH]c5)cc4)nc3c2)CC1 [B136, Propyl 4-(2-(4-(1H-pyrazol-4-yl)phenyl)-4-chloroquinoline-7-carbonyl)piperazine-1-carboxylate] | 38 |
| CCCOC(=O)N1CCN(C(=O)c2ccc3c(Cl)cc(-c4ccc5[nH]cnc5c4)nc3c2)CC1 [B139, Propyl 4-(2-(1H-benzo[d]imidazol-5-yl)-4-chloroquinoline-7-carbonyl)piperazine-1-carboxylate] | 34 |

The remaining lines, values ahead:

| IC50 [nM] | SMILES |
| --- | --- |
| 120 | CCCOC(=O)N1CCN(C(=O)c2ccc3c(Cl)cc(-c4ccc(CN)c(C)c4)nc3c2)CC1 [B108, Propyl 4-(2-(4-(aminomethyl)-3-methylphenyl)-4-chloroquinoline-7-carbonyl)piperazine-1-carboxylate] |
| 160 | CCCOC(=O)N1CCN(C(=O)c2ccc3c(Cl)cc(-c4ccc(CN(C)C)cc4)nc3c2)CC1 [B110, Propyl 4-(4-chloro-2-(4-((dimethylamino)methyl)phenyl)quinoline-7-carbonyl)piperazine-1-carboxylate] |
| 140 | CCCOC(=O)N1CCN(C(=O)c2ccc3c(Cl)cc(-c4cccc(CN(C)C)c4)nc3c2)CC1 [B112, Propyl 4-(4-chloro-2-(3-((dimethylamino)methyl)phenyl)quinoline-7-carbonyl)piperazine-1-carboxylate] |
| 780 | CCCOC(=O)N1CCN(C(=O)c2ccc3c(Cl)cc(-c4ccnc(C)c4)nc3c2)CC1 [B115, Propyl 4-(4-chloro-2-(2-methylpyridin-4-yl)quinoline-7-carbonyl)piperazine-1-carboxylate] |
| 250 | CCCOC(=O)N1CCN(C(=O)c2ccc3c(Cl)cc(-c4ccc(C(=O)NC)cc4)nc3c2)CC1 [B118, Propyl 4-(4-chloro-2-(4-(methylcarbamoyl)phenyl)quinoline-7-carbonyl)piperazine-1-carboxylate] |
| 35 | CCCOC(=O)N1CCN(C(=O)c2ccc3c(Cl)cc(-c4ccc(OC)c(CNC)c4)nc3c2)CC1 [B120, Propyl 4-(4-chloro-2-(4-methoxy-3-((methylamino)methyl)phenyl)quinoline-7-carbonyl)piperazine-1-carboxylate] |
| 150 | CCCOC(=O)N1CCN(C(=O)c2ccc3c(Cl)cc(-c4ccc5c(cnn5C)c4)nc3c2)CC1 [B123] |
| 89 | CCCOC(=O)N1CCN(C(=O)c2ccc3c(Cl)cc(-c4ccc(CN(C)C)s4)nc3c2)CC1 [B126, Propyl 4-(4-chloro-2-(5-((dimethylamino)methyl)thiophen-2-yl)quinoline-7-carbonyl)piperazine-1-carboxylate] |
| 21 | CCCOC(=O)N1CCN(C(=O)c2ccc3c(Cl)cc(-c4ccc5nn(C)cc5c4)nc3c2)CC1 [B127, Propyl 4-(4-chloro-2-(2-methyl-2H-indazol-5-yl)quinoline-7-carbonyl)piperazine-1-carboxylate] |
| 23 | CCCOC(=O)N1CCN(C(=O)c2ccc3c(Cl)cc(-c4ccn(C)c4)nc3c2)CC1 [B130, Propyl 4-(4-chloro-2-(1-methyl-1H-pyrrol-3-yl)quinoline-7-carbonyl)piperazine-1-carboxylate] |
| 3600 | CCCOC(=O)N1CCN(C(=O)c2ccc3c(Cl)cc(-c4ccc(C(=O)O)c(C)c4)nc3c2)CC1 [B137, 4-(4-Chloro-7-(4-(propoxycarbonyl)piperazine-1-carbonyl)quinolin-2-yl)-2-methylbenzoic acid] |
| 830 | CCCOC(=O)N1CCN(C(=O)c2ccc3c(Cl)cc(-c4cc[nH]n4)nc3c2)CC1 [B138, Propyl 4-(4-chloro-2-(1H-pyrazol-5-yl)quinoline-7-carbonyl)piperazine-1-carboxylate] |
| 350 | CCCOC(=O)N1CCN(C(=O)c2ccc3c(Cl)cc(-c4ccc5c(ccn5C)c4)nc3c2)CC1 [B140, Propyl 4-(4-chloro-2-(1-methyl-1H-indo1-5-yl)quinoline-7-carbonyl)piperazine-1-carboxylate] |
